IC50 and Kp data for 21 molecules are collected here from US20250320202A1, “PRMT5 INHIBITOR, PREPARATION METHOD THEREFOR, AND PHARMACEUTICAL USE THEREOF” (Abbisko Therapeutics Co., Ltd., priority 2022, published 2025).

Data set [1] concerns HCT116 MTAP knockout cells. The data set can be described thus: Human colon cancer HCT116 cell proliferation inhibition test (CellTiter-Glo, 6 days), MTAP knockout cells. The class given is cell-based. Conditions: HCT-116, 144 h. The method, then:
(§1) 1. HCT116 MTAP knockout and MTAP wild-type cells were plated in 96-well flat bottom plates, and cultured overnight with McCoy's 5A medium containing 10% fetal bovine serum+1% penicillin-streptomycin at 37° C. and 5% CO2.
(§2) 2. On the next day, the compound was dissolved with DMSO, diluted with DMSO and medium successively and transferred to the cell plate. The final concentration of the compound was 10 μM, the compound was diluted 4 times, with 9 concentration gradients, and DMSO control was added.
(§3) 3. Cells that have not been treated with the compound were removed. CellTiter-Glo Luminescent Cell Viability Assay (Promega) was used to detect cell viability, the operation was performed with reference to the package insert of the kit, and then the cell plate was placed on EnVision Multilabel Reader to detect the cold light signal.
(§4) 4. Meanwhile, the cell plate treated with the compound was cultured at 37° C. and 5% CO2 for 6 consecutive days.
(§5) 5. Then, CellTiter-Glo was also used to detect cell viability.
(§6) 6. Finally, the four-parameter dose-response curve module of GraphPad Prism v 9.2.0 software was used to plot the dose-response curve and calculate the IC50 for proliferation inhibition (unit: nM).
(In general: In ATP-based viability assays light output follows the ATP content of the culture.)

The subject of data set [2] is HCT116 MTAP wild-type cells. The data set can be described thus: Human colon cancer HCT116 cell proliferation inhibition test (CellTiter-Glo, 6 days), MTAP wild-type cells. Particulars: HCT-116, 144 h. The class given is cell-based. The method, then:
as §1, §2, §3, §4, §5, §6

Data set [3] can be described thus: Pharmacokinetic assay in mice, blood-brain barrier penetration analysis (Kp). The class given is in vivo. Particulars: male, mouse, ICR mice, PO single dose 10 mg/kg, brain vs plasma, read-out: Kp (4 h after administration). The protocol: The purpose of this trial is to study the pharmacokinetic behavior of some compounds of the present invention, and the administration method is: ICR mice were orally administered (PO) a single dose, at a dose of 10 mg/kg.
ICR mice male N=3 original source: Shanghai Sippr-Bk Lab Animal Co., Ltd.
The compounds were weighed and dissolved in 20% PG+10% Solutol HS15+70% pH 3 citrate buffer, respectively, shaken well and sonicated to prepare colorless clear solutions. 9 mice were administered orally after an overnight fast. The dose was 10 mg/kg.
• 1) About 90 μL blood was collected via the submandibular vein per time point, heparin sodium anticoagulant was added, the sample was placed on ice after collection, and plasma was centrifuged within 1 hour (centrifugation conditions: 8,000 rpm, 6 minutes, 2-8° C.). • 2) The blood collection time points were 1, 4, and 24 h. The samples were stored in a refrigerator at −20° C. • 3) The plasma sample was 40 μL, 160 μL of ice-cold acetonitrile containing internal standard was added, vortexed for 3 minutes, and centrifuged at 11,000 rpm for 5 minutes. • 4) 100 μL of the supernatant was taken and added to 100 μL of water, 5 μL of the sample was taken and injected into LC/MS/MS for analysis.
AUC or concentration in brain or plasma measured by using the above method was used to calculate the Kp. Kp refers to the relationship between drug concentrations in brain and blood and is used to evaluate the ability of a drug to penetrate the blood-brain barrier. Post-dose Kp was calculated by the following formula: […]

As a reminder, the IC50 is the point on the concentration scale where inhibition reaches its midpoint. Read a low IC50 as higher potency. Turning to `Nc1nc2ccc(C(=O)N(CC3CC3)[C@@H]3COc4cc(C(F)(F)F)ccc43)cc2c2cnccc12` [Example 192, (S)-5-amino-N-(cyclopropylmethyl)-N-(6-(trifluoromethyl)-2,3-dihydrobenzofuran-3-yl)benzo[c][2,6]naphthyridin-9-carboxamide], the concentration for half-maximal inhibition (IC50) came to 3.6 nM in data set [1] and 79 nM in data set [2]. Besides, the Kp at 4 h in data set [3] stood at 0.4.

`Nc1nc2cc(F)c(C(=O)N(c3cscn3)[C@@H]3CCc4cc(C(F)(F)F)ccc43)cc2c2c1COC2` [Example 213, (R)-4-amino-7-fluoro-N-(thiazol-4-yl)-N-(5-(trifluoromethyl)-2,3-dihydro-1H-inden-1-yl)-1,3-dihydrofuro[3,4-c]quinolin-8-carboxamide]: the IC50 was found to be 3 nM in data set [1] and 70 nM in data set [2].

On to `Nc1nc2ccc(C(=O)N(CC3CC3)[C@@H]3CCc4cc(C(F)(F)F)ccc43)cc2c2cnccc12` [Example 219, (R)-5-amino-N-(cyclopropylmethyl)-N-(5-(trifluoromethyl)-2,3-dihydro-1H-inden-1-yl)benzo[c][2,6]naphthyridin-9-carboxamide], for which the IC50 was 35 nM in data set [1] and 1560 nM in data set [2]. The Kp at 4 h in data set [3] came out at 0.5.

`Cn1cc(N(C(=O)c2cc3c4c(c(N)nc3cc2F)COC4)[C@@H]2CCc3cc(C(F)(F)F)ccc32)cn1` [Example 220, (R)-4-amino-7-fluoro-N-(1-methyl-1H-pyrazol-4-yl)-N-(5-(trifluoromethyl)-2,3-dihydro-1H-inden-1-yl)-1,3-dihydrofuro[3,4-c]quinolin-8-carboxamide]: the figures for the IC50 in data set [1] and in data set [2] were 17 nM and 335 nM, respectively.

`C[C@H](c1ncccn1)N(C(=O)c1cc2c(cc1F)nc(N)c1cnn(C)c12)[C@@H]1CCc2cc(C(F)(F)F)ccc21` [Example 221, 4-amino-7-fluoro-1-methyl-N-((R)-1-(pyrimidin-2-yl)ethyl)-N-((R)-5-(trifluoromethyl)-2,3-dihydro-1H-inden-1-yl)-1H-pyrazolo[4,3-c]quinolin-8-carboxamide]: the IC50 in data set [1] was 88 nM; in data set [2] it was 1340 nM.

Take `Nc1nc2ccc(C(=O)N(C3CC3)C3CCc4nc(C(F)(F)F)ccc43)cc2c2cnccc12` (stereo not drawn) [Example 225, 5-amino-N-cyclopropyl-N-(2-(trifluoromethyl)-6,7-dihydro-5H-cyclopenta[b]pyridin-5-yl)benzo[c][2,6]naphthyridin-9-carboxamide]: the figures for the IC50 in data set [1] and in data set [2] were 286 nM and 9470 nM, respectively.

Regarding `Cn1cc(N(C(=O)c2ccc3nc(N)c4ccncc4c3c2)[C@@H]2CCc3cc(C(F)(F)F)ccc32)cn1` [Example 226, (R)-5-amino-N-(1-methyl-1H-pyrazol-4-yl)-N-(5-(trifluoromethyl)-2,3-dihydro-1H-inden-1-yl)benzo[c][2,6]naphthyridin-9-carboxamide], the IC50 turned out to be 50 nM in data set [1] and 1950 nM in data set [2].

Consider `CN(C(=O)c1ccc2nc(N)c3ccncc3c2c1)[C@@H]1CCc2cc(C(F)(F)F)ccc21` [Example 227, (R)-5-amino-N-methyl-N-(5-(trifluoromethyl)-2,3-dihydro-1H-inden-1-yl)benzo[c][2,6]naphthyridin-9-carboxamide], for which the IC50 was 85 nM in data set [1] and 1070 nM in data set [2].

Consider `Cn1cc(N(C(=O)c2cc3c(cc2F)nc(N)c2cnn(C)c23)[C@@H]2CCc3cc(C(F)(F)F)ccc32)cn1` [Example 229, (R)-4-amino-7-fluoro-1-methyl-N-(1-methyl-1H-pyrazol-4-yl)-N-(5-(trifluoromethyl)-2,3-dihydro-1H-inden-1-yl)-1H-pyrazolo[4,3-c]quinolin-8-carboxamide], for which the IC50 in data set [1] came out at 3 nM; in data set [2] it was 61 nM.

For `Cc1cc2nc(N)c3ccncc3c2cc1C(=O)N(CC1CC1)[C@@H]1COc2nc(C(F)(F)F)ccc21` [Example 230, (S)-5-amino-N-(cyclopropylmethyl)-8-methyl-N-(6-(trifluoromethyl)-2,3-dihydrofuro[2,3-b]pyridin-3-yl)benzo[c][2,6]naphthyridin-9-carboxamide], the values for the IC50 in data set [1] and in data set [2] were 13 nM and 145 nM, respectively.

As to `Nc1nc2cc(F)c(C(=O)N(CC3CC3)[C@@H]3COc4nc(C(F)(F)F)ccc43)cc2c2cnccc12` [Example 231, (S)-5-amino-N-(cyclopropylmethyl)-8-fluoro-N-(6-(trifluoromethyl)-2,3-dihydrofuro[2,3-b]pyridin-3-yl)benzo[c][2,6]naphthyridin-9-carboxamide], the IC50 in data set [1] was found to be 15 nM; in data set [2] it was 604 nM.

As for `Nc1nc2cc(Cl)c(C(=O)N(CC3CC3)[C@@H]3COc4nc(C(F)(F)F)ccc43)cc2c2cnccc12` [Example 232, (S)-5-amino-8-chloro-N-(cyclopropylmethyl)-N-(6-(trifluoromethyl)-2,3-dihydrofuro[2,3-b]pyridin-3-yl)benzo[c][2,6]naphthyridin-9-carboxamide], the values for the IC50 in data set [1] and in data set [2] were 10 nM and 363 nM, respectively.

Consider `Cc1cc2nc(N)c3ccncc3c2cc1C(=O)N(CC1CC1)[C@@H]1COc2cc(C(F)(F)F)ccc21` [Example 233, (S)-5-amino-N-(cyclopropylmethyl)-8-methyl-N-(6-(trifluoromethyl)-2,3-dihydrobenzofuran-3-yl)benzo[c][2,6]naphthyridin-9-carboxamide], for which the IC50 in data set [1] was found to be 33 nM; in data set [2], 102 nM. Further, the Kp at 4 h in data set [3] turned out to be 0.4.

In the case of `Nc1nc2cc(F)c(C(=O)N(CC3CC3)[C@@H]3COc4cc(C(F)(F)F)ccc43)cc2c2cnccc12` [Example 234, (S)-5-amino-N-(cyclopropylmethyl)-8-fluoro-N-(6-(trifluoromethyl)-2,3-dihydrobenzofuran-3-yl)benzo[c][2,6]naphthyridin-9-carboxamide], the IC50 was determined as 20 nM in data set [1] and 224 nM in data set [2]. Moreover, the Kp at 4 h in data set [3] came to 0.7.

Consider `Nc1nc2cc(Cl)c(C(=O)N(CC3CC3)[C@@H]3COc4cc(C(F)(F)F)ccc43)cc2c2cnccc12` [Example 235, (S)-5-amino-8-chloro-N-(cyclopropylmethyl)-N-(6-(trifluoromethyl)-2,3-dihydrobenzofuran-3-yl)benzo[c][2,6]naphthyridin-9-carboxamide], for which the IC50 in data set [1] is 21 nM; in data set [2], 176 nM. Moreover, the Kp at 4 h in data set [3] is 0.7.

Regarding `Cc1cc2nc(N)c3ccncc3c2cc1C(=O)N(CC1CC1)[C@@H]1CCc2nc(C(F)(F)F)ccc21` [Example 236, (R)-5-amino-N-(cyclopropylmethyl)-8-methyl-N-(2-(trifluoromethyl)-6,7-dihydro-5H-cyclopenta[b]pyridin-5-yl)benzo[c][2,6]naphthyridin-9-carboxamide], the results for the IC50 in data set [1] and in data set [2] were 9 nM and 227 nM, respectively.

As to `Nc1nc2cc(F)c(C(=O)N(CC3CC3)[C@@H]3CCc4nc(C(F)(F)F)ccc43)cc2c2cnccc12` [Example 237, (R)-5-amino-N-(cyclopropylmethyl)-8-fluoro-N-(2-(trifluoromethyl)-6,7-dihydro-5H-cyclopenta[b]pyridin-5-yl)benzo[c][2,6]naphthyridin-9-carboxamide], the IC50 came out at 20 nM in data set [1] and 788 nM in data set [2].

Consider `Nc1nc2cc(Cl)c(C(=O)N(CC3CC3)[C@@H]3CCc4nc(C(F)(F)F)ccc43)cc2c2cnccc12` [Example 238, (R)-5-amino-8-chloro-N-(cyclopropylmethyl)-N-(2-(trifluoromethyl)-6,7-dihydro-5H-cyclopenta[b]pyridin-5-yl)benzo[c][2,6]naphthyridin-9-carboxamide], for which the IC50 in data set [1] came out at 14 nM; in data set [2] it was 264 nM.

In the case of `CCN(C(=O)c1cc2c(cc1F)nc(N)c1cnn(C)c12)C1CCc2cc(C(F)(F)F)ccc21` (stereo not drawn) [Reference Compound 1, reference compound], the IC50 in data set [1] came out at 54 nM; in data set [2] it was 696 nM.

In the case of `CN(C(=O)c1ccc2nc(N)c3ccncc3c2c1)[C@@H]1COc2cc(C(F)(F)F)ccc21` [Reference Compound 2, reference compound], the IC50 in data set [1] was 25 nM; in data set [2] it was 702 nM. Besides, the Kp at 4 h in data set [3] was found to be 0.1.

Turning to `Cn1cc(N(Cc2ccc(C(F)(F)F)cn2)C(=O)c2cc3c(cc2F)nc(N)c2cnn(C)c23)cn1` [compound 3, reference compound], the IC50 in data set [1] was determined as 9 nM; in data set [2], 278 nM.
